In patent publication US20130316958A1 (University of Southern California, priority 2010, published 2013):

Key:
[1] = system: human Atg3 deletion mutants; assay: GST pulldown with Atg3 deletion mutants; format: binding; settings: GST-Atg3, N-terminal and C-terminal regions
Excerpt: The overall structure of yeast Atg3 has a unique hammer-like shape with the N-terminal and C-terminal regions discretely responsible for Atg7 and Atg8 (equivalent to mammalian LC3) binding, respectively. (Yamada et al. (2007) J. Biol. Chem. 282:8036-8043). Based on the structure of yeast Atg3, human Atg3 deletion mutants fused with a GST mammalian expression vector were constructed: GST-Atg31-93, GST-Atg3193-268, GST-Atg3268-315, and GST-Atg3193-315-GST-tagged hATG3 and hATG3 mutant genes were cloned into a pcDNA5/FRT/TO derivative encoding an N-terminal GST epitope tag between the BamHI and NotI sites. GST pulldown with Flag-KSHV vFLIP, Flag-cFLIPs, Flag-MCV 159L, or Flag-HVS vFLIP along with GST-Atg3, GST-Atg3 N-terminal region (Nt), or GST-Atg3 C-terminal region (Ct) was performed as described above and was followed by immunoblotting with aFlag or aGST.

[2] = system: HCT116, HaCat, and MEF cells; assay: GFP-LC3 autophagy with KSHV vFLIP in multiple cell types; format: cell-based; settings: 2 μM rapamycin 3 hr
Procedure: During autophagy, an LC3 precursor (LC3-I) undergoes cleavage and lipidation to yield its processed form (LC3-II) (Mizushima et al. (2008) Nature 451:1069-1075). Immunoblotting was performed with an antibody against LC3 to further measure autophagic activity. NIH3T3-Vector, NIH3T3-KSHV-vFLIP, and NIH3T3-MCV-159L cells were treated with Hank's solution for 4 hr. Polypeptides were resolved by SDS-polyacrylamide gel electrophoresis (PAGE) and transferred to a PVDF membrane (Bio-Rad). […] The proteins were visualized by a chemiluminescence reagent (Pierce) and detected by a Fuji Phosphor Imager. A large portion of LC3-I was processed to LC3-II in NIH3T3-vector cells under starvation conditions, while little or no processed LC3-II was detected in NIH3T3-KSHV-vFLIP, NIH3T3-MCV-159L, NIH3T3-HVS-vFLIP, and NIH3T3-cFLIPs cells. Finally, the ability of FLIP to block autophagy in multiple cell types was evaluated. At 12-16 hr post-transfection with GFP-LC3, HCT116, HaCat, and MEF cells containing vector or KSHV vFLIP were treated with 2 μM rapamycin for 3 hr. Subsequently, GFP-LC3 was detected using an inverted fluorescence microscope and the autophagy levels quantified as means (±SD) of the results from three independent experiments.

TREX-BCBL cells = assay: vFLIP expression in KSHV-infected BCBL1 cells: autophagy, growth suppression and death; format: cell-based
Procedure: To investigate whether vFLIP expression suppresses autophagy in virus-infected cells, a KSHV-infected BCBL1 cell line was constructed (TREX-BCBL) in which a Flag-tagged KSHV-vFLIP gene was integrated into the chromosomal DNA under the control of a tetracycline-inducible promoter. (Nakamura et al. (2003) J. Virol. 77:4205-4220). At 12-16 hr post-transfection with GFP-LC3, TREX-BCBL-Vector and TREX-BCBL-vFLIP cells were treated with Doxycycline for 24 hr, followed by incubation with 2 μM rapamycin for an additional 12 hr. The detection of GFP-LC3 and autophagy levels was performed as described above, vFLIP expression was detected by IB with anti-Flag, and autophagosomes were visualized by scanning EM (scale bar=50 nm). Treatment of these cells with doxycycline strongly activated Flag-vFLIP expression.
The effect of vFLIP on autophagy was tested in a KSHV-infected BCBL1 cell line. TREX-BCBL-Vector and TREX-BCBL-vFLIP cells were treated with rapamycin or left untreated for 6 days in the presence of doxycycline and subjected to scanning EM, to examine the morphologies of over 100 dead cells and quantify cell death for apoptosis and autophagic death, or subjected to PI staining and cell cycle analysis.
All siRNAs were produced by Dharmacon Research. siRNAs specific for human Beclin1 (5′[…]3′) and a nonspecific scrambled control siRNA were transfected using DharmaFect reagent (Dharmacon) according to the manufacturer's instructions. At 48-72 hr post-transfection, cells were analyzed for autophagy. Trypan blue staining and a Beckman Coulter Z2 Particle Count and Size analyzer were used to determine cell death (as a percentage) at day 5.

With “KSHV vFLIP: viral FLICE-like inhibitor protein of Kaposi's sarcoma-associated herpesvirus, expressed in cells” the “Atg3 region bound (GST pulldown)” value [1] was “independently bound either the aa193-268 or aa268-315 region of the C-terminal of Atg3”, the “block of autophagy in multiple cell types” value [2] was “efficiently blocked autophagy in a number of cell types” and the “block of rapamycin-induced autophagy and cell death” value (TREX-BCBL cells; TREX-BCBL-vFLIP cells) was “readily blocked rapamycin-induced autophagy and cell death”. For the same substance, the “inhibition of peptide-induced autophagy and cell death” value (TREX-BCBL cells; TREX-BCBL-vFLIP cells) was “minimal”, the “suppression of rapamycin-induced autophagy in TREX-BCBL cells” value (TREX-BCBL cells; doxycycline 24 hr, 2 μM rapamycin 12 hr) was “extensively suppressed rapamycin-induced autophagy” and the “block of rapamycin- or zVAD-induced growth suppression and autophagic death” value (TREX-BCBL cells; ectopic expression in BCBL1 cells) was “almost completely blocked”.
